The values that follow are results of earlier work, collected in patent publication US12409131B2, “Transdermal delivery of dronabinol” (Pike Therapeutics USA, Inc., priority 2019, dated 2025).

For data set [1] the following is noted: in 96 hrs through human cadaver skin, U.S. Pat. No. 8,449,908.

As to `CCCCCc1cc(O)c2c(c1)OC(C)(C)[C@@H]1CCC(C)=C[C@@H]21` (relative stereo) [dronabinol, (6aR-trans)-6a,7,8,10a-tetrahydro-6,6,9-trimethyl-3-pentyl-6H-dibenzo[b,d]pyran-1-ol], the Oral bioavailability was 10-20%. Besides, the cumulative amount delivered in data set [1] was 10000 ng.
